From US8309685B2 (Celgene Avilomics Research, Inc., priority 2007, dated 2012)
Read-outs that look alike come from different tables or passages of the source.

Legend:
[1] = target: T1, HCV NS3/4A wild type (genotype 1b) (Hepatitis C virus genotype 1b, UniProt P26663); test: Mass spectrometric analysis (MALDI-TOF) of covalent modification, HCV wild type; assay type: binding; settings: 10-fold excess of compound to protein, 3 hrs
T1 construct: mass spectroscopic analysis of HCV NS3/4A wild-type protease domain; purchased Bioenza Calif
Experimental: Mass spectrometric analysis of HCV wild type or HCV variant C159S in the presence of test compound was performed. 100 pmols of HCV wild type (Bioenza Calif.) was incubated with compound for 1 hr and 3 hrs at 10-fold access of […] to protein. 1 ul aliquots of the samples (total volume of 4.24 ul) were diluted with 10 ul of 0.1% TFA prior to micro C4 ZipTipping directly onto the MALDI target using Sinapinic acid as the desorption matrix (10 mg/ml in 01% TFA:Acetonitrile 50:50). Analyses were performed on a Shimadzu Biotech Axima TOF^2 (Shimadzu Instruments) matrix-assisted-laser desorption/ionization Time-of-Flight (MALDI-TOF) mass spectrometer. The same procedure was carried out on 100 pmols of HCV C159S mutant of HCV protease for 3 hrs at 10-fold excess of (I-3) to protein.
As depicted in FIGS. 2, 3, 4, and 5, mass spectrometric analysis of HCV wild type or HCV mutants in the presence of test compound (I-3) was performed. […] 1 ul aliquots of the samples were diluted with 10 ul of 0.1% TFA prior to micro C4 ZipTipping directly onto the MALDI target using Sinapinic acid as the desorption matrix (10 mg/ml in 0.1% TFA:Acetonitrile 50:50).
Mass spectrometric analysis of HCV wild type (genotype 1b) in the presence of test compounds I-73 and I-75 was performed using the following protocol: HCV NS3/4A wild type (wt) was incubated for 1 hr at a 10× fold access of test compound to protein. 2 ul aliquots of the samples were diluted with 10 ul of 0.1% TFA prior to micro C4 ZipTipping directly onto the MALDI target using Sinapinic acid as the desorption matrix (10 mg/ml in 0.1% TFA:Acetonitrile 50:50). For intact protein mass measurement the instrument was set in Linear mode using a pulsed extraction setting of 24,500 and apomyoglobin as the standard to calibrate the instrument.
Mass spectrometric analysis of HCV NS3/4A genotypes 1a, 1b, 2a, and 3a in the presence of test compound I-96 was performed using the following protocol: HCV NS3/4A was incubated for 3 hr at a 10× fold access of test compound to protein. […]

[2] = system: HCV RNA replicon in cell line ET (luc-ubi-neo/ET), human Huh7 hepatoma; test: Method A: HCV RNA replicon antiviral assay (luciferase, ET cell line); assay type: cell-based, Hepatitis C virus; settings: Hepatitis C virus, Huh-7
Summary of the method: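 Six 3-fold dilutions of each drug were tested on subconfluent luc-ubi-neo/ET Huh7 replicon cells (5×10^3/well) for 72 hr at 37 °C. EC50 and EC90 came from luciferase read-out, IC50 from CytoTox-1 cell number, and […]; interferon alpha-2b was run each time as control.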

[3] = target: T2, A156T mutant of the HCV NS3/4A 1b protease enzyme (Hepatitis C virus genotype 1b, UniProt P26663, A1182T); test: HCV Protease FRET Assay (IC50_APP), A156T mutant; assay type: biochemical
T2 construct: 10× stocks of NS3/4A protease enzyme from Bioenza (Mountain View, Calif.); purchased Bioenza (Mountain View, Calif.)

HCV NS3/4A protease = HCV NS3/4A protease (UniProt Q9WMX2); test: Method B: HCV Protease Assay using FRET Methodology; design: species or system Hepatitis C virus
Source text: Method B: HCV Protease Assay using FRET Methodology
A quantitative, fluorescence resonance energy transfer (FRET)-based methodology was employed to identify HCV NS3/4A protease inhibitors. The assay employed a synthetic FRET peptide, derived from the HCV NS5A/5B cleavage site, with the HCV protease to evaluate the activity of compounds against the protease by monitoring the cleavage activity of the complex. A synthetic peptide which encompasses the NS5A-5B junction (NH2-EDVVCCSMSYK-COOH) was labeled with Dabcyl and Edans at N- and C-termini, respectively (Invitrogen, Carlsbad, Calif.). Fluorescence measurement was used to estimate the IC50 value of the test compound. […] Upon cleavage of the FRET peptide by HCV NS3/4A proteinase complex (100 ng/mL), the fluorescence is recovered and can be continuously monitored at excitation/emission=340/490 nm.

[4] = Replicon, assay of Example 22, 72 hr, read-out: Inhibition, Replicon
[5] = assay described in Example 22, read-out: Replicon (IC50)
[6] = apparent IC50, A156T mutant; read-out: IC50_APP, HCV A156T

**Q.** For `C=CC(=O)NCC(=O)N1C[C@H](Oc2cc(-c3ccccc3)nc3cc(OC)ccc23)C[C@H]1C(=O)N[C@]1(C(=O)NS(=O)(=O)c2ccccc2)C[C@H]1C=C` [Compound I-27, (2S,4R)-1-(2-acrylamidoacetyl)-4-(7-methoxy-2-phenylquinolin-4-yloxy)-N-((1R,2S)-1-(phenylsulfonylcarbamoyl)-2-vinylcyclopropyl)pyrrolidine-2-carboxamide], which “Covalent modification of HCV wild type by mass spectrometry” value [1] is on record?
**A.** near complete covalent modification

**Q.** What about the IC90 ([2]; assay described in Example 22) of the same molecule?
**A.** 100 to 1000 nM

**Q.** What about the IC50 [2, 4] of the same molecule?
**A.** 10 to 100 nM

**Q.** What about the IC50 [2, 5] of the same molecule?
**A.** 100 to 1000 nM

**Q.** And the IC50 [3, 6]?
**A.** 100 to 1000 nM

**Q.** How did the IC50 (HCV NS3/4A protease; Enzyme/Assay: Biochemical; read-out: Inhibition, Biochemical) turn out when `C=CC(=O)NC[C@H](NC(=O)OC(C)(C)C)C(=O)N1C[C@H](Oc2cc(-c3ccccc3)nc3cc(OC)ccc23)C[C@H]1C(=O)N[C@]1(C(=O)NS(=O)(=O)c2ccccc2)C[C@H]1C=C` [Compound I-3, N-[(1,1-dimethylethoxy)carbonyl]-3-[(2-propenoyl)amino]-L-alanyl-(4R)-4-[(7-methoxy-2-phenyl-4-quinolinyl)oxy]-L-prolyl-1-amino-2-ethenyl-N-(phenylsulfonyl)-(1R,2S)-cyclopropanecarboxamide] was run?
**A.** 10 to 100 nM

**Q.** What about the IC50 [2, 4] of the same molecule?
**A.** 10 to 100 nM

**Q.** What about the IC50 ([2]; WT, cell-based assay, methods of the Examples, read-out: Comparative IC50 Values, WT) of the same molecule?
**A.** 20 nM

**Q.** What about the IC50 [2, 5] of the same molecule?
**A.** 10 to 100 nM

**Q.** What about the IC50 [3, 6] of the same molecule?
**A.** 1000 to 10000 nM

**Q.** With `C=C[C@@H]1C[C@]1(NC(=O)[C@@H]1C[C@@H](Oc2cc(-c3ccccc3)nc3cc(OC)ccc23)CN1C(=O)[C@H](CNC(=O)CCl)NC(=O)OC(C)(C)C)C(=O)NS(=O)(=O)c1ccccc1` [Compound I-7, N-[(1,1-dimethylethoxy)carbonyl]-3-[(chloroacetyl)amino]-L-alanyl-(4R)-4-[(7-methoxy-2-phenyl-4-quinolinyl)oxy]-L-prolyl-1-amino-2-ethenyl-N-(phenylsulfonyl)-(1R,2S)-cyclopropanecarboxamide] as the molecule, how does the IC50 (HCV NS3/4A protease; read-out: Inhibition, Biochemical; Enzyme/Assay: Biochemical) read?
**A.** 10 to 100 nM

**Q.** What about the IC90 ([2]; assay described in Example 22) of the same molecule?
**A.** 100 to 1000 nM

**Q.** And the IC50 [2, 4]?
**A.** 10 to 100 nM

**Q.** And the IC50 [2, 5]?
**A.** 10 to 100 nM

**Q.** And the IC50 ([3]; read-out: IC50_APP, HCV A156T; apparent IC50, A156T mutant)?
**A.** 100 to 1000 nM
